Values after ≈ are worked out from the molar mass of the structure shown.
Experiments:
[1] = biological target: COX-1/COX-2 (Homo sapiens) (UniProt P35354+P23219); test: Selectivity index, ratio of IC50 for human COX-1 to IC50 for human COX-2; format: protein assay
[2] = biological target: T1, Phosphatidylinositol 4,5-bisphosphate 3-kinase catalytic subunit delta isoform (Homo sapiens, UniProt O00329); test: Inhibition of PI3Kdelta (unknown origin) incubated for 90 mins by [gamma-33P]-ATP based scintillation counting method
T1 sequence (O00329 whole entry): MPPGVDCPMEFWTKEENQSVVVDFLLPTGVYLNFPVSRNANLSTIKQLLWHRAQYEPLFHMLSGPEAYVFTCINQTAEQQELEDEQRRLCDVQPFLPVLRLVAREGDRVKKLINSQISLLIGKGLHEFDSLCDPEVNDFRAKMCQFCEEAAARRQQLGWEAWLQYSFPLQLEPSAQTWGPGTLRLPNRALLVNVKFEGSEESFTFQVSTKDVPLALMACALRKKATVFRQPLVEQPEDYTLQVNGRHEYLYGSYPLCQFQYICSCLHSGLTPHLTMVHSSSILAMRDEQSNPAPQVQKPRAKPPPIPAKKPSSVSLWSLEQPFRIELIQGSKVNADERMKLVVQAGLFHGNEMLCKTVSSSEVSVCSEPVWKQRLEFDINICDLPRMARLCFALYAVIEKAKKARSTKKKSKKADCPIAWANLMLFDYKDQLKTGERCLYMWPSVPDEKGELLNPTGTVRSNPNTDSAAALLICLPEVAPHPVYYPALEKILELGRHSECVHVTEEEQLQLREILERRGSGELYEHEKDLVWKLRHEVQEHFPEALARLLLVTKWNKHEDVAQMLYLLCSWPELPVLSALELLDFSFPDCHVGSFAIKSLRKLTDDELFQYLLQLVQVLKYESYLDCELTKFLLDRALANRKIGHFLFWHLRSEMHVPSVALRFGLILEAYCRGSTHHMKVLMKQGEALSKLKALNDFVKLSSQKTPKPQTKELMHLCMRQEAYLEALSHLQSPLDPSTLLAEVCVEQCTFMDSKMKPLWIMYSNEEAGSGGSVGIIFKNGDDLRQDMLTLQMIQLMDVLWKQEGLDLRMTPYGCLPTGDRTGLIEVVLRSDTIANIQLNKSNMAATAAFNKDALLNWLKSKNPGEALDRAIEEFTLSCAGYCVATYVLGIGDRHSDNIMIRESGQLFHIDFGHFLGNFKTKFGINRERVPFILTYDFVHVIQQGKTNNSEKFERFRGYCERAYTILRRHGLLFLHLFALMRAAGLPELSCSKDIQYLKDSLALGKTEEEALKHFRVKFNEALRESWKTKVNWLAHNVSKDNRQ

[3] = biological target: Phosphatidylinositol 4,5-bisphosphate 3-kinase catalytic subunit alpha isoform (Homo sapiens, UniProt P42336); test: Inhibition of PI3Kalpha (unknown origin) incubated for 90 mins by [gamma-33P]-ATP based scintillation counting method
[4] = Inhibition of PI3Kdelta in Rat1 cells reduction in phosphorylation of AKT at Ser473 residue incubated for 2 hrs by alpha screen assay; format: cell-based; conditions: Rattus norvegicus, Rat1, 2 h
[5] = biological target: Phosphatidylinositol 4,5-bisphosphate 3-kinase catalytic subunit gamma isoform (Homo sapiens, UniProt P48736); test: Inhibition of PI3Kgamma (unknown origin) incubated for 90 mins by [gamma-33P]-ATP based scintillation counting method
Staphylococcus aureus [6] = test: Bactericidal activity against Staphylococcus aureus; format: functional
Pseudomonas aeruginosa [7] = test: Bactericidal activity against Pseudomonas aeruginosa; format: functional
Escherichia coli [8] = test: Bactericidal activity against Escherichia coli; format: functional
K562 = test: Anticancer activity against human K562 cells assessed as reduction in cell viability; format: functional, cell-based
Candida albicans = test: Fungicidal activity against Candida albicans; format: functional
Aspergillus clavatus = test: Fungicidal activity against Aspergillus clavatus; format: functional
Aspergillus niger = test: Fungicidal activity against Aspergillus niger; format: functional
Pseudomonas aeruginosa [9] = test: Antimicrobial activity against Pseudomonas aeruginosa by CLSI method; format: functional
Staphylococcus aureus [10] = test: Antimicrobial activity against Staphylococcus aureus by CLSI method; format: functional
Bacillus subtilis = test: Antimicrobial activity against Bacillus subtilis by CLSI method; format: functional
Escherichia coli [11] = test: Antibacterial activity against Escherichia coli by CLSI method; format: functional
[12] = biological target: Epidermal growth factor receptor (Homo sapiens, UniProt P00533); test: Inhibition of wild type human EGFR measured by ELISA analysis
[13] = Acute toxicity in po dosed Swiss albino mouse measured after 24 hrs; format: organism-based; conditions: in vivo
Ehrlich [14] = test: Antitumor activity against mouse EAC cells implanted in mouse assessed as reduction in tumor cell count; format: functional; parameters: scale not given: the % may be the effect or the level left
Ehrlich [15] = test: Antitumor activity against mouse EAC cells implanted in mouse assessed as decrease in total ascitic volume; format: functional; parameters: scale not given: the % may be the effect or the level left
Thermolysin [16] = biological target: T2, Thermolysin (Bacillus thermoproteolyticus, UniProt P00800); test: Inhibition of Bacillus thermoproteolyticus Thermolysin
T2 sequence (P00800 whole entry): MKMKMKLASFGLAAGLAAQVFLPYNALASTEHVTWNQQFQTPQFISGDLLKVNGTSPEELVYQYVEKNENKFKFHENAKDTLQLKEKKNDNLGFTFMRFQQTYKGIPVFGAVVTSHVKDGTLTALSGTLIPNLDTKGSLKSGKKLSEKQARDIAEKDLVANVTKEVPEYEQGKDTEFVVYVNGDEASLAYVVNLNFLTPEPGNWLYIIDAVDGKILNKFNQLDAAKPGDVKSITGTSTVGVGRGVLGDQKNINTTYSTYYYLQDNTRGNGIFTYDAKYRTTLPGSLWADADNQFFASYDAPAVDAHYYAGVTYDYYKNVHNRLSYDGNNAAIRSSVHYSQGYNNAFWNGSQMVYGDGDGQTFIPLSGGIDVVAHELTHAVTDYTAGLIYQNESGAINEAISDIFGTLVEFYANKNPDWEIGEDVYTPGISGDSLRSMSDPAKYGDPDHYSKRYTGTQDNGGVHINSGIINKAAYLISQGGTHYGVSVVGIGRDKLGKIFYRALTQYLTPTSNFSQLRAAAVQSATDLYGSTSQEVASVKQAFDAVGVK

Thermolysin [17] = biological target: T2, Thermolysin; test: Binding affinity to Bacillus thermoproteolyticus Thermolysin assessed as inhibition constant by Cheng-Prusoff equation analysis

Sequence of Phosphatidylinositol 4,5-bisphosphate 3-kinase catalytic subunit alpha isoform (P42336 whole entry, canonical isoform): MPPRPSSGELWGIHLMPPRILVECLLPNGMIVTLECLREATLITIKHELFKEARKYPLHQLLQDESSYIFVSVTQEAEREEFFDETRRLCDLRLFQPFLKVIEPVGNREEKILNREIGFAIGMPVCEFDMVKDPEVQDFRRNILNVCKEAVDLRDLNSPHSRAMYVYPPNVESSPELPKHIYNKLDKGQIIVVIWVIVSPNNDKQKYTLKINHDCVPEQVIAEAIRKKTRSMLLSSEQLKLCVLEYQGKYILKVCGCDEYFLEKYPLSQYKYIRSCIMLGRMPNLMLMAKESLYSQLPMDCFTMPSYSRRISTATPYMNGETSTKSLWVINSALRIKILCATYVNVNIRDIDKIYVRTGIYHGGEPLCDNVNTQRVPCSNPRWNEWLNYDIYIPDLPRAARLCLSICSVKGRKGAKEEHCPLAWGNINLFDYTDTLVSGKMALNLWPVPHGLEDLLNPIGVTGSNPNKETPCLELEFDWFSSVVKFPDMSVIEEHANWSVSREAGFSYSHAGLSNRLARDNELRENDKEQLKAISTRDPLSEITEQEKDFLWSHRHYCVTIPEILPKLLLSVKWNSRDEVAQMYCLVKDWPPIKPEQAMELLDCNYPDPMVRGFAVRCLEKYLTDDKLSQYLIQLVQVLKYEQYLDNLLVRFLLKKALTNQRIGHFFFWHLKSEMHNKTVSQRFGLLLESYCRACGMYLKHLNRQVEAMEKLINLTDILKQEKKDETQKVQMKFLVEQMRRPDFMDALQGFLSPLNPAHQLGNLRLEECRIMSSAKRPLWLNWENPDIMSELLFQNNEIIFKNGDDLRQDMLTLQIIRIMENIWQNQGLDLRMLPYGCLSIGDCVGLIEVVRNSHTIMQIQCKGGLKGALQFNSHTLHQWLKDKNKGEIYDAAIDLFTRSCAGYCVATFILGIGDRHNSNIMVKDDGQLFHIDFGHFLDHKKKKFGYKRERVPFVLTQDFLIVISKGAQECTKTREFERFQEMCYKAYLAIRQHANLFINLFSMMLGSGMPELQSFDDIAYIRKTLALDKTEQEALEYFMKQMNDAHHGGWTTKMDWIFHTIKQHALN
Sequence of Phosphatidylinositol 4,5-bisphosphate 3-kinase catalytic subunit gamma isoform (P48736 whole entry, canonical isoform): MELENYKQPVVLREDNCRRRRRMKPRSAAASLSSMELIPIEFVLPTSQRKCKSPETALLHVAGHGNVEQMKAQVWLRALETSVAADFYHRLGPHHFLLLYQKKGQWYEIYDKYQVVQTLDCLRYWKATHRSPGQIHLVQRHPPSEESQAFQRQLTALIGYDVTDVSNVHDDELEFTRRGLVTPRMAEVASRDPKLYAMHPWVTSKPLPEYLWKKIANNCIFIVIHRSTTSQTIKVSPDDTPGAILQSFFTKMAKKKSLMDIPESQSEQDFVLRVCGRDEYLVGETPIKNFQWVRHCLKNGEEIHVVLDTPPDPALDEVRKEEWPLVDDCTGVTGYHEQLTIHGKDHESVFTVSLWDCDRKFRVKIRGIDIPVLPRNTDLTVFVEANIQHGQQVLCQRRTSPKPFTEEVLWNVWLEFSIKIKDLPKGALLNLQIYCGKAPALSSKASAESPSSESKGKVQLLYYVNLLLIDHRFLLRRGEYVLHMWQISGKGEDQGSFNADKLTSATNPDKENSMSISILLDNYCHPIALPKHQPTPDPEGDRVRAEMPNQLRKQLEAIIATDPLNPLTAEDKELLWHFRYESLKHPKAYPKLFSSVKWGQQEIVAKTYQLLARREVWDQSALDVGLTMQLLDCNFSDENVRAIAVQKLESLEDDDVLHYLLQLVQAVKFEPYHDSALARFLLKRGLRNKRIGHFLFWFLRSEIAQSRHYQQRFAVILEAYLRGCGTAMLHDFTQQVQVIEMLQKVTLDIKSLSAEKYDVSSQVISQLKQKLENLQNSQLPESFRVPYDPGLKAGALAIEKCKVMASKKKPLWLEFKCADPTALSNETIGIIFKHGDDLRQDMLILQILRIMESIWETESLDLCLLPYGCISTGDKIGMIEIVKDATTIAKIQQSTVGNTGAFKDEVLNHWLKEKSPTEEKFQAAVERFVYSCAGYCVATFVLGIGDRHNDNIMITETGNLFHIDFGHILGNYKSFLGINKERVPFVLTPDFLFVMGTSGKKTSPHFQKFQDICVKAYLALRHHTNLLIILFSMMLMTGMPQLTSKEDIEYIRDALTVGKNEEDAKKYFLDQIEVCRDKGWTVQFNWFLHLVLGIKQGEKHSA
Sequence of Epidermal growth factor receptor (P00533 whole entry): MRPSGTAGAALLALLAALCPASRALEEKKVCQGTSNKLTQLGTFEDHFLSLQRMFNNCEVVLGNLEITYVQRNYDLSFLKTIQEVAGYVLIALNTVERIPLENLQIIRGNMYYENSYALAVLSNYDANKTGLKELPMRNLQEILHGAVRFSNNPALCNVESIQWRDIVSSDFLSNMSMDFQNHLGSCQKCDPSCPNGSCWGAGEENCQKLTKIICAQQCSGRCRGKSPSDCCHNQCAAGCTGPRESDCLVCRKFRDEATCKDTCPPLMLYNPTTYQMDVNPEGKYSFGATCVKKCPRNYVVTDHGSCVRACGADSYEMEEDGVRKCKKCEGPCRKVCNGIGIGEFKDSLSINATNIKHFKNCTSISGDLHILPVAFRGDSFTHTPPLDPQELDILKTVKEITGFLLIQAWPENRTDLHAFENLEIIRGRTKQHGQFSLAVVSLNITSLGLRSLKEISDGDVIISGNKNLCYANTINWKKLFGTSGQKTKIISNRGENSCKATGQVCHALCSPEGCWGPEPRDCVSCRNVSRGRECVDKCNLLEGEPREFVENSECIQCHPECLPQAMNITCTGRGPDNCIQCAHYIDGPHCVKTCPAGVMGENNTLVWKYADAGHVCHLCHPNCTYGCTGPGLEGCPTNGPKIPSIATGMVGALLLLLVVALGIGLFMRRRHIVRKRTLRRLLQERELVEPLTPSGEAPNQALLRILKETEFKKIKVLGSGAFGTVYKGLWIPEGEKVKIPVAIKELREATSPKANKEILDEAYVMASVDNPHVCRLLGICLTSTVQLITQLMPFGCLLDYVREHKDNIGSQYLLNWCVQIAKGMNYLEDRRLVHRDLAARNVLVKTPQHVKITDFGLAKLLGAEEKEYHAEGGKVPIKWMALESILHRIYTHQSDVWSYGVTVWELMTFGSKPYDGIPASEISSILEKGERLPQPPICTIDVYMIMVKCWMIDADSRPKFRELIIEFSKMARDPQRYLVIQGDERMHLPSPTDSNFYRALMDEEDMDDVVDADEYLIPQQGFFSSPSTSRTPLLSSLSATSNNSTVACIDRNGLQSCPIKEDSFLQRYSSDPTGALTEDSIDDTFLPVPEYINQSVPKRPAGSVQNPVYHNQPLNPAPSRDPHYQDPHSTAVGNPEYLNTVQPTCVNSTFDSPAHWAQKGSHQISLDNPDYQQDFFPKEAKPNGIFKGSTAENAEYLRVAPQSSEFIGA

SMILES: O=c1c2cc(Cl)ccc2nc(-c2ccccc2)n1-c1n[nH]c2ccccc12
- Ratio IC50 [1]: 2.55

SMILES: CN1CCN(C)/C(=N/c2ccc([N+](=O)[O-])cc2C(=O)Nc2ccccc2)C1
- IC50 [2]: 82 nM
- IC50 [3]: > 10000 nM
- IC50 [4]: 2260 nM
- IC50 [5]: > 10000 nM

SMILES: O=c1c2cc(I)ccc2nc(Cc2ccccc2Nc2c(Cl)cccc2Cl)n1-c1ccc(-c2nnc(-c3ccccc3Cl)o2)cc1
- MBC (Staphylococcus aureus [6]): 50 µg/mL (≈ 64.4 µM)

SMILES: O=c1c2cc(I)ccc2nc(Cc2ccccc2Nc2c(Cl)cccc2Cl)n1Cc1nnc(-c2ccc(Cl)cc2)o1
- MBC (Pseudomonas aeruginosa [7]): 150 µg/mL (≈ 210 µM)
- MBC (Escherichia coli [8]): 50 µg/mL (≈ 70 µM)

SMILES: Cn1nccc1-n1c([C@@H]2CSCN2c2ncnc(N)c2C#N)nc2cccc(Cl)c2c1=O
- IC50 [4]: > 10000 nM

SMILES: O=c1c2cc(Br)ccc2nc(Cc2ccccc2Nc2c(Cl)cccc2Cl)n1Cc1nnc(-c2ccc(Cl)cc2)o1
- IC50 (K562): 1500 nM
- MBC (Staphylococcus aureus [6]): 50 µg/mL (≈ 74.9 µM)

SMILES: Cn1nccc1-n1c([C@@H]2CSCN2c2ncnc3[nH]cnc23)nc2cccc(Cl)c2c1=O
- IC50 [3]: 9100 nM
- IC50 [4]: 222 nM

SMILES: O=c1c2cc(I)ccc2nc(Cc2ccccc2Nc2c(Cl)cccc2Cl)n1Cc1nnc(-c2ccccc2Cl)o1
- MFC (Candida albicans): 100 µg/mL (≈ 140 µM)
- MFC (Aspergillus clavatus): 200 µg/mL (≈ 280 µM)
- MFC (Aspergillus niger): 200 µg/mL (≈ 280 µM)

SMILES: O=c1c2ccccc2nc(Cc2ccccc2Nc2c(Cl)cccc2Cl)n1Cc1nnc(-c2ccc(Cl)cc2)o1
- IC50 (K562): 1000 nM

SMILES: O=c1c2ccccc2nc(/C=C/c2ccccc2)n1-c1nnc(-c2ccc(Cl)cc2)o1
- MIC (Pseudomonas aeruginosa [9]): 70 µg/mL (≈ 164 µM)
- MIC (Staphylococcus aureus [10]): 79 µg/mL (≈ 185 µM)
- MIC (Bacillus subtilis): 75 µg/mL (≈ 176 µM)
- MIC (Escherichia coli [11]): 70 µg/mL (≈ 164 µM)

SMILES: CC1(C)S[C@@H]2[C@H](NC(=O)[C@H](N)c3ccccc3)C(=O)N2[C@H]1C(=O)O [AMPICILLIN]
- MBC (Staphylococcus aureus [6]): 250 µg/mL (≈ 715 µM)

SMILES: O=c1c2ccc(Cl)cc2nc(-c2ccccc2)n1-c1nnc(-c2ccccc2C2CC2)o1
- IC50 [12]: 102 nM

SMILES: COc1ccc(-c2nnc(-n3c(-c4ccccc4)nc4cc(Cl)ccc4c3=O)o2)cc1
- IC50 [12]: 21 nM

SMILES: O=c1c2cc(I)ccc2nc(Cc2ccccc2Nc2c(Cl)cccc2Cl)n1-c1ccc(-c2nnc(-c3ccc(Cl)cc3)o2)cc1
- MBC (Staphylococcus aureus [6]): 50 µg/mL (≈ 64.4 µM)

SMILES: O=c1c2ccccc2nc(Cc2ccccc2Nc2c(Cl)cccc2Cl)n1-c1ccc(-c2nnc(-c3ccccc3Cl)o2)cc1
- MBC (Staphylococcus aureus [6]): 50 µg/mL (≈ 76.8 µM)

SMILES: CC1=Cc2ccc(Br)cc2C(=O)C1c1nnc(SCC(=O)NC2C(=O)CSC2c2c(Br)cccc2Br)[nH]1 (centres undefined)
- LD [13]: 1400 mg/kg

SMILES: N#Cc1c(N)ncnc1N1CSC[C@H]1c1nc2cccc(Cl)c2c(=O)n1-c1cccs1
- IC50 [2]: 140 nM
- IC50 [3]: > 10000 nM
- IC50 [4]: 509 nM
- IC50 [5]: 1100 nM

SMILES: O=c1c2cc(Br)ccc2nc(Cc2ccccc2Nc2c(Cl)cccc2Cl)n1-c1nnc(-c2ccccc2Cl)o1
- MBC (Staphylococcus aureus [6]): 50 µg/mL (≈ 76.5 µM)

SMILES: CC1=Cc2ccc(Br)cc2C(=O)C1c1nnc(SCC(=O)N/N=C/c2c(Br)cccc2Br)[nH]1 (centres undefined)
- LD [13]: 1400 mg/kg

SMILES: O=c1c2cc(Br)ccc2nc(-c2ccccc2)n1-c1n[nH]c2ccccc12
- Ratio IC50 [1]: 1.05

SMILES: Cc1ccc2nc(-c3ccccc3)n(-c3n[nH]c4ccccc34)c(=O)c2c1
- Ratio IC50 [1]: 3.59

SMILES: Cc1nc2ccccc2c(=O)n1-c1nnc(S)s1
- Activity (Ehrlich [14]): 12%
- Activity (Ehrlich [15]): 28%

SMILES: O=c1c2ccccc2nc(-c2ccccc2)n1-c1nccs1
- IC50 (Thermolysin [16]): 76800 nM
- Ki (Thermolysin [17]): 59300 nM

Source: ChEMBL document CHEMBL5230137, “4-(3H)-quinazolinones N-3 substituted with a five membered heterocycle: A promising scaffold towards bioactive molecules” (Eur J Med Chem, 2021)
